# Source: PMC12436592 (Nature Communications, 2025)
# Where “and” joins values, the source holds several entries; their conditions need not be identical. Equal values may be shown once.
# Legend:
# hP2X7R [1] = molecular target: T1, hP2X7R (Homo sapiens, UniProt Q99572); test: Ethidium bromide accumulation in hP2X7R-expressing HEK293 cells; type: cell-based; set-up: expressed in transfected cells; conditions: for mean % of maximum accumulation / MAX100 (% of maximum accumulation, replicates 1-3): BzATP 6 μM; for IC50: hP2X7R, ethidium bromide accumulation, mean ± SD, triplicate; for ΔΔGexp: relative to UB-ALT-P30, from experimental pIC50 values, T = 298 K; for MAX100 (% of maximum accumulation, replicates 1-3): single replicates
# T1 sequence (Q99572 1-595): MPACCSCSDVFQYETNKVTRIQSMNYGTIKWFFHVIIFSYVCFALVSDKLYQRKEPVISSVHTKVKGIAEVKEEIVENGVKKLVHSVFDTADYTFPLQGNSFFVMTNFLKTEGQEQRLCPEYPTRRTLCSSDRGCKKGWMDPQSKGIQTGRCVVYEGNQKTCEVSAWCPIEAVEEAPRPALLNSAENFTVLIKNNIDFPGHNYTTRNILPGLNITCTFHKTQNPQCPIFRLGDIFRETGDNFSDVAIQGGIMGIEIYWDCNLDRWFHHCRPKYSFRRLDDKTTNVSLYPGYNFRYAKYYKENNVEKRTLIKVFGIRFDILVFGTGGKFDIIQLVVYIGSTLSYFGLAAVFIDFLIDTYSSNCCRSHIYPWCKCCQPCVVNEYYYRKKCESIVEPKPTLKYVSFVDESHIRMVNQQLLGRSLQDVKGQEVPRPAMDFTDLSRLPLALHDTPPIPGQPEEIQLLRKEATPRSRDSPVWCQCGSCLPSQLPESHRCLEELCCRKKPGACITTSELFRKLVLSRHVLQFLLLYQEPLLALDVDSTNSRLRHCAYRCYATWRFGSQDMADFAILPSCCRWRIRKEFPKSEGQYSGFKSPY
# Method: Human P2X7R-expressing HEK293 cells were cultured in a humidified atmosphere of 5% CO2 at 37 °C in Dulbecco’s Modification of Eagle’s Medium (DMEM; Corning) supplemented with 10% (v/v) fetal bovine serum (Corning) and 1% (v/v) antibiotic–antimycotic (Gibco)[75]. To perform the assay, the DMEM was removed, and the HEK293 cells were washed with 3 mL of 1X DPBS (Dulbecco’s Phosphate-Buffered Saline; Corning). After the removal of DPBS solution, the cells were detached from the dish with 1 mL of trypsin/EDTA (Gibco), and the cells were collected by centrifugation. The cells (density of 2.25 × 10^7) were re-suspended in 4-(2-hydroxyethyl)-1-piperazineethanesulfonic acid (HEPES)-buffered salt solution consisting of 140 mM potassium chloride, 1 mM ethylene diamine tetraacetic acid (EDTA), 5 mM glucose, 20 mM HEPES, and 0.1 mM ethidium bromide (pH 7.4). The vehicles or appropriate range of concentrations of compounds (10 μL, pre-diluted in 10% (v/v) DMSO in DW from 10 mM stock) were added to each well of 96-well black plate (Corning), and 80 μL of the cell suspension was subsequently added to each well. BzATP (10 μL, pre-diluted in DW from 10 mM stock) was then added, and the final assay volume was maintained at 100 μL. After the incubation in 5% CO2 at 37 °C for 2 h, the ethidium dye uptake was detected by measuring the fluorescence (excitation wavelength of 530 nm and emission wavelength of 590 nm) of each well using a CHAMELEON™ Multi-Technology Plate Reader. The antagonistic activities of compounds are expressed as the percentages relative to the maximum accumulation of ethidium bromide observed in the control group with the stimulation of the hP2X7R by an agonist, BzATP. The IC50 values of compounds as antagonists were calculated using nonlinear regression analysis using OriginPro 9.1 software.
# hP2X7R [2] = molecular target: T1, hP2X7R; test: TEVC determination of antagonist binding kinetics in Xenopus oocytes; type: cell-based; set-up: expressed in transfected cells; host or cells: Xenopus laevis oocytes injected with capped cRNA (modified pUC19 vector, T7); conditions: single replicates
# Method: Xenopus laevis frogs were from Nasco International (Fort Atkinson, WI) and kept at the Core Facility Animal Models (CAM) of the Biomedical Center (BMC) of LMU Munich, Germany (Az:4.3.2–5682/LMU/BMC/CAM) in accordance with the EU Animal Welfare Act. Ovaries were surgically extracted (ROB_54-011-AZ 2532.Vet_02-23-166), treated with collagenase (Nordmark, Uetersen, Germany 1.0–1.5 mg/mL, ≥2 at RT) and defolliculated (15-min treatment in Ca^2+-free oocyte Ringer (90 mM NaCl, 1 mM KCl, 2 mM MgCl2, 5 mM HEPES), respectively. 50 nL of cRNA (0.5 µg/µL) were injected using a Nanoject II injector (Science Products, Drummond) and oocytes were kept in ND96 (96 mM NaCl, 2 mM KCl, 1 mM MgCl2, 1 mM CaCl2, 5 mM HEPES, pH 7.4–7.5). The plasmid containing the hP2X7R was linearized with NotI-HF (NEB) and purified with the MinElute Reaction Cleanup Kit (Qiagen, Hilden, Germany). Capped cRNA was synthesized using the mMESSAGE mMACHINE™ T7 Transcription Kit (ThermoFisher Scientific, Schwerte, Germany) and dissolved in nuclease-free water (500 ng/µL). Injected oocytes were allowed to express for at least 36 hours.
# Two-electrode voltage clamp recordings were performed at room temperature and a holding potential of −70 mV using a Turbo Tec-05X Amplifier (npi electronic, Tamm, Germany), a magnetic valve system, and CellWorks E 5.5.1 software. Currents were filtered at 1 kHz and digitized at 200 Hz. Electrode resistances were below 1.2 MΩ. […] Recordings were performed in ND96.
# After obtaining reproducible agonist-evoked responses, solutions were switched to antagonist-containing recording solutions with and without ATP to determine association rates. Responses following antagonist application were normalized to the preceding, stabilized agonist responses. Dissociation was determined in 1- or 2 min intervals when currents were reduced to <10%. Association curves were fit to the data by the equation % Response = (100-Plateau)*exp(-kobs*Time) + Plateau, where Plateau indicates the response at equilibrium and kobs the experimentally determined on-rate. All data were analyzed using Prism software (GraphPad Software, Inc., Version 8.3.0, San Diego, CA) and are presented as means ± SD from at least three oocytes. […] The final concentration of DMSO in the recording solution was ≤1%.
# Supplementary Fig. 10: Kinetics of ligands binding to the hP2X7R measured by TEVC. (A) […]
# All data represented as mean ± S.D. with n=3, 7, 7, and 7 f or the experiments performed at 3 nM, 10 nM, 30 nM, and 100 nM […]
# (B) Representative current traces for t he activation
# (C) On- and off-r at e constants and Ki
# Observed on- r at es kobs were determined by fitting the data (Fig. 4H, Supplementary Fig. 10A) to the function: % response = (100- Plateau)*exp(-kobs*time)+Plateau and plotted against the antagonist concentrations to obtain koff according to k obs=kon*F+koff. Assuming a (simplified) 1:1 binding model, of f-r at e constant koff and Ki values were estimated using the previous formulas as well as Ki=koff/kon. […]
# determined by Ca2+ imaging (18 nM, Fig. 3B ) and the binding equilibrium reached at each […]
# values of UB-MBX-46 c annot reflect an accurate value due to the nearly negligible dissociation on the timescale of the experiment. If k off was estimated based on the IC50 value (IC50 = koff/kon panel D), a more accurate koff value can be obtained. Numbers in square brackets are 95% Confidence Intervals. *values obtained from an extrapolated dose inhibition curve from D . (D) The plateau values, representing the binding equilibrium, were used to generate dose inhibition
# [3] = antagonist concentration 3.2 (unit not given)
# [4] = antagonist concentration 16 (unit not given)
# [5] = antagonist concentration 80 (unit not given)
# [6] = antagonist concentration 400 (unit not given)
# [7] = antagonist concentration 2000 (unit not given)
# [8] = antagonist concentration 10000 (unit not given)
# [9] = antagonist concentration 100 (unit not given)
# [10] = antagonist concentration 1000 (unit not given)
structure (smiles),measurement,setting,value
CC12CC3CC(C)(C1)CC(C(=O)NNc1ccccc1Cl)(C3)C2 [UB-ALT-P36],mean % of maximum accumulation,hP2X7R [1]; [3],75.2635%
same,mean % of maximum accumulation,hP2X7R [1]; [4],81.0675%
same,mean % of maximum accumulation,hP2X7R [1]; [5],68.3254%
same,mean % of maximum accumulation,hP2X7R [1]; [6],62.0321%
same,mean % of maximum accumulation,hP2X7R [1]; [7],5.603%
same,mean % of maximum accumulation,hP2X7R [1]; [8],-3.752%
same,IC50,hP2X7R [1],0.477 ± 0.17 µM
same,ΔΔGexp,hP2X7R [1],5.98 ± 8.08 kJ/mol
same,"MAX100 (% of maximum accumulation, replicates 1-3)",hP2X7R [1]; [3],66.4908 and 84.0361
same,"MAX100 (% of maximum accumulation, replicates 1-3)",hP2X7R [1]; [4],77.5726 and 94.2771 and 71.3528
same,"MAX100 (% of maximum accumulation, replicates 1-3)",hP2X7R [1]; [5],56.9921 and 86.4458 and 61.5385
same,"MAX100 (% of maximum accumulation, replicates 1-3)",hP2X7R [1]; [6],60.1583 and 61.747 and 64.191
same,"MAX100 (% of maximum accumulation, replicates 1-3)",hP2X7R [1]; [7],0.7916 and 7.53 and 8.488
same,"MAX100 (% of maximum accumulation, replicates 1-3)",hP2X7R [1]; [8],-6.86 and -5.723 and 1.326
CC12CC3(C)CC(C)(C1)CC(C(=O)NNc1ccccc1Cl)(C2)C3 [UB-ALT-P37],mean % of maximum accumulation,hP2X7R [1]; [9],69.1292%
same,mean % of maximum accumulation,hP2X7R [1]; [10],66.8307%
same,mean % of maximum accumulation,hP2X7R [1]; [8],5.192%
same,IC50,hP2X7R [1],> 1 µM
same,ΔΔGexp,hP2X7R [1],>7.87 kJ/mol
same,"MAX100 (% of maximum accumulation, replicates 1-3)",hP2X7R [1]; [9],71.3983 and 82.2055 and 53.7838
same,"MAX100 (% of maximum accumulation, replicates 1-3)",hP2X7R [1]; [10],82.6271 and 51.3784 and 66.4865
same,"MAX100 (% of maximum accumulation, replicates 1-3)",hP2X7R [1]; [8],17.7966 and 0.7519 and -2.973
O=C(NNc1ccccc1Cl)C12CC3CC(CC(C3)C1)C2 [UB-MALT-P30],"on-rate to hP2X7R, Response [%]","hP2X7R [2]; 3 nM, time 2 min",96.4% and 100% and 92.9%
same,"on-rate to hP2X7R, Response [%]","hP2X7R [2]; 3 nM, time 4 min",96.4% and 97.5% and 92.9%
same,"on-rate to hP2X7R, Response [%]","hP2X7R [2]; 3 nM, time 6 min",96.4% and 97.5% and 92.9%
same,"on-rate to hP2X7R, Response [%]","hP2X7R [2]; 10 nM, time 2 min",93.8% and 78.8% and 87.9% and 77.9% and 84.1% and 80.6% and 76.1%
same,"on-rate to hP2X7R, Response [%]","hP2X7R [2]; 10 nM, time 4 min",83.3% and 71.2% and 77.8% and 75.3% and 77.2% and 75% and 67.4%
same,"on-rate to hP2X7R, Response [%]","hP2X7R [2]; 10 nM, time 6 min",77.1% and 65.4% and 72.7% (2×) and 74% and 66.7% and 65.2%
same,"on-rate to hP2X7R, Response [%]","hP2X7R [2]; 10 nM, time 8 min",58.3% and 61.5% and 69.7% and 72.7% (2×) and 66.7% and 63%
same,"on-rate to hP2X7R, Response [%]","hP2X7R [2]; 10 nM, time 10 min",45.8% and 57.7% and 67.7% and 72.7% (2×) and 66.7% and 65.2%
same,"on-rate to hP2X7R, Response [%]","hP2X7R [2]; 10 nM, time 12 min",39.6% and 55.8% and 65.7% and 72.7% (2×) and 66.7% and 65.2%
same,"on-rate to hP2X7R, Response [%]","hP2X7R [2]; 30 nM, time 2 min",54.3% and 59.3% and 51.2% and 37.5% and 42.9% and 45.7% and 46.9%
same,"on-rate to hP2X7R, Response [%]","hP2X7R [2]; 30 nM, time 4 min",45.7% and 44.4% and 19.5% and 33.3% (2×) and 34.3%
same,"on-rate to hP2X7R, Response [%]","hP2X7R [2]; 30 nM, time 6 min",42.4% and 37% and 17.1% and 20.8% and 28.6% and 25.7% and 28.3%
same,"on-rate to hP2X7R, Response [%]","hP2X7R [2]; 30 nM, time 8 min",40.2% and 33.3% and 14.6% and 20.8% and 23.8% and 22.9% and 22.4%
same,"on-rate to hP2X7R, Response [%]","hP2X7R [2]; 30 nM, time 10 min",39.1% and 33.3% and 9.8% and 29.2% and 23.8% and 22.9% and 22.4%
same,"on-rate to hP2X7R, Response [%]","hP2X7R [2]; 100 nM, time 2 min",20% and 4.2% and 3.2% and 8.2% and 20.5% and 17.6% and 21.1%
same,"on-rate to hP2X7R, Response [%]","hP2X7R [2]; 100 nM, time 4 min",6.7%
same,"on-rate to hP2X7R, Response [%]","hP2X7R [2]; 100 nM, time 6 min",6.7% and 1.4% and 0% and 2% and 10.8% and 10.6% and 10.5%
